The source of these data is patent US6677302B2, “Compositions and methods for the treatment of viral disorders” (The Trustees of Boston University, priority 1996, dated 2004).

The conditions of series [1]: European pharmacokinetic studies; 500 mls of a 5% solution; two normal volunteers; cited from earlier work.
Series [2] has as its system IL-2 receptor. As to the kind of experiment: Expression of the IL-2 receptor. The format is cell-based. The source says:
The IL-2 receptor is a target for therapies currently under development. For example, antibodies directed to the IL-2 receptor and conjugated to a toxin, are currently being tested in the clinic, and IL-2, itself conjugated to a toxin, is currently being tested in the clinic. […] This increased expression might potentiate the therapies under development.

For series [3], the system named is SKNSH cells. Description: Induction of apoptosis. The format is cell-based, human. The conditions noted are these: FIG. 1b.
Series [4] can be described thus: Stability testing of arginine butyrate solution. To be noted: solution for injection. The format is physicochemical. The source says:
Butyric acid is a short chain fatty acid present in foods such as dairy products. Arginine is an amino acid which is commonly used in hyperalimentation solutions in hospitals throughout the country. Butyric acid was obtained from Aldrich, catalog number W-212. L-Arginine is anhydrous. Arginine was combined with butyric acid, pH 5.0-5.5, in sterile, non-pyrogenic water for injection to neutralize the fatty acid. The solution was filtered through a Millipore System at a final concentration for injection of 100 mg/ml or 25 mg/ml. Each lot was pyrogen tested and tested for sterility and purity. […] Since 10% arginine butyrate solution is hypertonic (100 mg/ml), it must be infused through a long or deep IV access to avoid peripheral venous irritation. Arginine butyrate was infused via an infusion pump. European pharmacokinetic studies of arginine butyrate given as a “slow” and 90 minute bolus of 500 mls of a 5% solution (2.5 g/M in two normal volunteers, and found a 15 minute elimination period. Plasma levels from patients with hemoglobinopathies have shown that butyric acid disappears within 5 to 15 minutes after an infusion of up to 2,000 mg/kg/day.

In series [5] the test system is EBV-TK MRNA. Description: EBV-TK mRNA dose response experiments. In kind it is cell-based. To be noted: in vitro. The procedure: In vitro, peaks induction of EBV-TK plateaus at serum level of around 1 mM. […] Therefore, dose levels up to 2,000 mg/kg/day, were evaluated in an attempt to reach serum levels of 1 mM. Treatment cycles were of 4 week duration, with 3 weeks on treatment and one week off. Patients were given the standard dose of GCV throughout each 21 day course of arginine butyrate, starting, however, on day 0. Arginine butyrate was given by continuous IV infusion at 500 mg/kg/day for 2 days, at 1,000 mg/kg/day for 2 days, at 1,500 mg/kg/day for 2 days, and thereafter at 2,000 mg/kg/day, or as tolerated, for the rest of the 21 day course. Cycle 2 was begun on Day 29. Patients were given a complete tumor evaluation after every course with subsequent cycles emitted unless disease progressed.
In some experiments sodium was used instead of arginine to neutralize butyric acid. In dose response experiments, levels of EBV-TK MRNA plateaus at around 1 mM to 3 mM sodium butyrate, inducing levels essentially equivalent to those induced by 1 mM arginine butyrate. […] Similarly, levels of GCV above 30 μM were generally cytocidal to both to EBV+ and EBV− cell lines. Cell lines used were X50-7, a latent EBV+ B-cell lymphoma; Akata, a producer EBV+ Burkitt's lymphoma; HPB-ALL, a T-cell line; and Nalm-6, an EBV− B-cell line. […]

The test system of series [6] is EBV-TK mRNA in P3RH1 (EBV B-cell producer line). As to the kind of experiment: EBV-TK mRNA induction in lymphoma cell lines. In kind it is cell-based, human. The conditions noted are these: 12 hours, 3 mM. The procedure:
(§1) Because of arginine butyrate's ability to induce various genes, its ability to induce EBV-TK mRNA in human lymphoma cell lines was evaluated. FIG. 7 provides bar graphs of the basal levels of TK and the levels following 12 hours of incubation with 3 mM arginine butyrate in 3 lymphoma cell lines: X50-7 a latent large cell lymphoma (B cell); P3RH1 an EBV B-cell producer line derived from Burkitt's lymphoma; and Raji a non-producer line derived from a Burkitt's lymphoma. EBV-TK levels were not increased in the EBV non-producer cell line, Raji, which has a high basal level of TK, but were increased approximately 4 fold in an EBV producer cell line and 10 fold in a non-producer cell line.

Series [7] has as its system EBV-TK mRNA in X50-7 (latent large cell lymphoma). Description: EBV-TK mRNA induction in lymphoma cell lines. The format is cell-based, human. The conditions noted are these: non-producer (latent) line X50-7; 12 hours, 3 mM. The procedure:
as §1

Series [8] relates to Fibroblasts (mouse BALB/c-3T3). As to the kind of experiment: MIC on cell proliferation, 7 days in culture. The format is cell-based. The procedure:
(§2) The ability of arginine butyrate to induce differentiation has been evaluated and is measured by inhibition of growth, in some of the neoplastic cell types previously reported to be sensitive to (sodium) butyric acid, and found arginine butyrate to be as potent as butyric acid. We have also extended that work to additional cell types and found Arginine Butyrate to induce differentiation in these new cell types. Table 1 lists the cell types tested and the minimum inhibitory concentration (MIC) of sodium butyrate (NaB) and arginine butyrate (ArgB) on these cell lines. The MIC is the lowest dose that prevents all growth over the 7 days that the cells are maintained in culture, that is the minimum dose that prevents an increase in cell number. […] The […] of ArgB and NaB were equivalent on all cell lines tested.

In series [9] the test system is Fibroblasts (normal human). As to the kind of experiment: MIC on cell proliferation, 7 days in culture. The format is cell-based. To be noted: lowest dose that prevents all growth over 7 days. The method, then:
as §2

Series [10] concerns CaCo (colon cancer). Description: Survival fraction after 72 hours exposure (MTT assay). In kind it is cell-based, human. The procedure: (§3) Growth inhibition was measured by the MTT assay. […] PC-3=prostate cancer; A549=non-small cell cancer; OvCar=ovarian cancer; CaCo=colon cancer; MCF-7=breast cancer; and SW900=non-small cell lung cancer.
On the technique in general: Formazan colour is commonly taken as a measure of viable cells.

The subject of series [11] is A549 (non-small cell cancer). The description is as above. In kind it is cell-based, human. The method, then:
as §3

The test system of series [12] is Gastric Carcinoma (AGS). As to the kind of experiment: Differentiation of tumor cell line. The format is cell-based, human. The procedure: The effects of arginine butyrate compounds on differentiation of several human tumor cell lines were evaluated by visual inspection and by histochemical and pathological staining:
Although HLA antigens are expressed on normal, fully differentiated cells, they are not expressed or are minimally expressed on most neoplastic cells. In this way neoplastic cells escape recognition by the cellular arm of the immune system and are able to survive.

Series [13] relates to K562. Description: DNA fragmentation by flow cytometry. In kind it is cell-based, human. The conditions noted are these: alone, FIG. 3. The source says:
It has been shown that sodium butyrate can induce apoptosis in human tumors or tumor cell lines (L. A. Noorduyn et al., Histopathology 21:59, 1992).
For orientation: Flow cytometry measures light scatter and fluorescence of single cells or particles in a stream.

[14] abbreviates: Table 4, 0.5 AB (0.5 mM), 72 hour.

Marks after values point to notes of the source that are not given here.

Take arginine butyrate: the elimination period in series [1] is 15 min. Besides, the IL-2 receptor expression result in series [2] is recorded as “increase expression of the IL-2 receptor”. Further, the apoptosis result in [3] is listed as “induces apoptosis”. Also, the “stability in glass containers” value in series [4] is “up to 404 days”. Further, in [5], the “level at which peak induction of EBV-TK plateaus” value is given as “around 1 mM”. Further, the EBV-TK level increase result in series [6] is recorded as “approximately 4 fold”; in series [7] it was approximately 10 fold. Further, the MIC in [8] and in series [9] was >5,000 μM throughout. The “Survival Fraction” value in [10] (Table 3, 1.0 AB (1.0 mM), 72 hours) is given as 0.60*; in series [10] (setting [14]), 0.67*; in series [10] (Table 4, .05 AB, 72 hour), 0.81*; in series [11] (Table 3, 0.5 AB (0.5 mM), 72 hours), 0.92; in series [11] (setting [14]), 0.76*; in [11] (Table 4, .05 AB, 72 hour) it was 0.71*. Also, in [12], the differentiation marker expression entry is on record as “began to express mucin”. Also, the “DNA fragmentation and cellular shrinkage” value in series [13] was “DNA fragmentation and cellular shrinkage”.
